Values joined by “and” are separate entries in the source; they are usually repeats but may differ in a detail not shown here. Equal values may be shown once.
Assays:
Assay type in all cases: binding
LC3B [1] = target: T1, LC3B (Homo sapiens, UniProt Q9GZQ8); assay: Fluorescence polarization with LC3B protein; parameters: His (N); made in house; host or cells: E. coli BL21DE3 RIL; settings: for Fluorescence Polarization (mP): probe 18 at 100 µM
Description: The LC3B open reading frame was cloned into pOPINE-NHis by the Dortmund protein Facility (DPF). pOPINE-NHis-LC3B was transformed into BL21DE3 RIL K+. Cells were cultured in TB medium supplemented with ampicillin and chloramphenicol (Amp/Cam), 1% glucose and 2 mM MgSO4. A 10 L culture was incubated in TB/Amp with 0.01 % lactose monohydrate, 2 mM MgSO4 for 4 h at 37 °C followed by overnight incubation at 20 °C. Cells were lysed using sonication in a buffer containing 50 mM HEPES (pH 7.5), 300 mM NaCl, 10 mM imidazole, 1 mM 2-mercaptoethanol, 1 mM PMSF and DNase. Upon centrifugation, the supernatant was applied onto Ni NTA column. The column was washed using 50 mM HEPES (pH 7.5), 300 mM NaCl, 30 mM imidazole, 1 mM 2-mercaptoethanol. The protein was eluted in 50 mM HEPES pH 7.5, 300 mM NaCl, 300 mM imidazole, 1 mM 2-mercaptoethanol prior to size exclusion chromatography using 26/60 G75 column and 25 mM HEPES pH 7.5, 150 mM NaCl and1 mM DTE.
The assay was performed in black, 384 well plates with a total volume of 20 µl per well using a buffer solution comprising 50 mM Tris, 300 mM NaCl and 1 mM 2-mercaptoethanol, pH 7.5. The BODIPY labelled compound 18 was tested at a final concentration of 100 µM, and the LC3B protein was titrated in two-fold dilution series. The plates were incubated at 20°C for 30 min, and fluorescence polarization was measured using a Tecan Spark plate reader at ex/em 502 / 511 nm.

DCAF11 [2] = target: T2, DCAF11 (Homo sapiens, UniProt Q8TEB1); assay: In-gel fluorescence labelling of purified DCAF11; settings: 40 min; in-gel fluorescence
T2 sequence (Q8TEB1 whole entry): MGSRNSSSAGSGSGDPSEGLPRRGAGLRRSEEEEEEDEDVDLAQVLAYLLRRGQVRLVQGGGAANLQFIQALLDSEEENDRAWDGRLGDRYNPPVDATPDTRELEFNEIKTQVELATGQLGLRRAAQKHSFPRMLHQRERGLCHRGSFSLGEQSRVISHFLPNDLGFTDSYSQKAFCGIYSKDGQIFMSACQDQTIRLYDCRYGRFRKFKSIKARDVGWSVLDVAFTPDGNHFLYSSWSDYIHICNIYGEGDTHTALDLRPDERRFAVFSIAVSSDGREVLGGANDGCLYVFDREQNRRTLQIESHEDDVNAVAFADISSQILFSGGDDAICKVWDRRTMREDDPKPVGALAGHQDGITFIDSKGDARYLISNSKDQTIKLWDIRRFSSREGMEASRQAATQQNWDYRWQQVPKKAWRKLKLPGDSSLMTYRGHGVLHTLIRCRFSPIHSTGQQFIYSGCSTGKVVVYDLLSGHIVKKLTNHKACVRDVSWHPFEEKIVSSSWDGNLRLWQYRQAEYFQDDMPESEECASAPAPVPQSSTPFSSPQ
Description: Purified DCAF11 protein (1 μg, Origene, TP760719) was diluted in PBS buffer that is mixed with compound 2 or BODIPY derivative 18 at the indicated concentration at room temperature. Samples were diluted with 5 × SDS sample loading buffer and heated at 95 °C for 5 min. Proteins were separated using SDS-PAGE and were visualized using the ChemiDoc MP Imaging System (BIO-RAD) at 488 nm and the results were analyzed by Image Lab (BIORAD).

DCAF11 [3] = target: T2, DCAF11; assay: Affinity-based enrichment (biotin-streptavidin pulldown) in Hep G2 cells overexpressing HA-DCAF11; parameters: host or cells: Hep G2; settings: Hep G2 cells overexpressing HA-DCAF11; 10 μM probe, 2 h
Description: Hep G2 cells (1 × 10^6 cells/well) were seeded in 6-well plates and incubated for 24 h. On the next day, the cells were transfected with 1 µg pCMV3-N-HA-DCAF11 plasmid (Sino Biological, HG16257-NY) or 1 µg empty vector (pcDNA3.1(+), Thermo Fisher, V79020) and 2.5 µL FuGENE® HD transfection reagent (Promega, E2311) per well. The cells were incubated for 48 h prior to treatment with 100 μM compound 2 for 1 h. […] The cells were washed with ice-cold PBS, then lysed in lysis buffer (150 mM sodium chloride, 1% NP-40, 50 mM TRIS-HCl, pH 8.0 with complete protease inhibitor cocktail (Roche, 11836170001)) for 30 min on ice. After centrifugation at 16,000 x g, the supernatant was transferred into a new tube and the protein concentration was determined using the DC protein assay (BIO-RAD, 5000116).
The supernatant was discarded and 1 mg of lysate in 500 µL lysis buffer was added to the beads and incubated for 1 h at room temperature with overhead rotation. The beads were washed twice with 500 µL washing buffer (50 mM PIPES (pH 7.4), 50 mM NaCl, 75 mM MgCl2, 5 mM EGTA, 0.1% NP-40, 0.1% Triton X-100, 0.1% Tween20) and twice with PBS for 10 min each at room temperature with overhead rotation. Enriched proteins were eluted by boiling of the beads at 95 °C for 5 min in 20 µL of a supersaturated (25 mM) biotin solution and visualized by Western Blotting as described above.

LC3B [4] = target: T1, LC3B; assay: Thermal shift assay with LC3B; settings: 15 µM LC3B; 60 µM compound; Glo-Melt dye
Description: For thermal shift analysis, 15 µM of human LC3B was dispensed into 384-well plates (Hard-Shell 384-well 480 PCR plates, BioRAD #HSR4805) in buffer (50 mM Tris/HCl pH 7.4, 100 mM NaCl, 1 mM GSH and 0.02% CHAPS) with a Certus Flex liquid dispenser (Gyger). 60 µM compounds in DMSO (n4 or DMSO (0.6%) as control were added with an Echo 520 acoustic liquid handler (Labcyte). Glo-Melt dye was added (final concentration: 1/100), plates sealed with Lightcycler 480 Sealing Foils (Roche, #04 729 757 001) and mixed by short centrifugation (1 min, 60 g and room temeprature). A Lightcycler 480 II (Roche) was used for thermal shift curves with a temperature gradient from 20 to 95 °C according to the manufacturer´s protocol. Protein melting curves were analyzed, and the difference in meting temperature (ΔTm) was calculated with LightCycler Thermal Shift Analysis software (ROCHE) and visualized by Graphpad Prism (Version 9.5.1).

Compound: Cc1cc(C)n2c1C=C1C=CC(CCC(=O)NCCOCCOCCOCCOc3c(Br)cc(C=C4C(=O)Nc5ccc(Br)cc54)cc3Br)=[N+]1[B-]2(F)F [Compound 18]
- binding to LC3B in fluorescence polarization (LC3B [1]; 18 at 100 µM, LC3B titrated): failed to bind
- Fluorescence Polarization (mP) (LC3B [1]; LC3B protein concentration 0.00610352 µM): 132 mP and 130 mP and 100 mP and 97 mP
- Fluorescence Polarization (mP) (LC3B [1]; LC3B protein concentration 0.012207 µM): 127 mP and 128 mP and 102 mP and 96 mP
- Fluorescence Polarization (mP) (LC3B [1]; LC3B protein concentration 0.0244141 µM): 129 mP and 121 mP and 108 mP and 110 mP
- Fluorescence Polarization (mP) (LC3B [1]; LC3B protein concentration 0.0488281 µM): 132 mP and 133 mP and 107 mP and 105 mP
- Fluorescence Polarization (mP) (LC3B [1]; LC3B protein concentration 0.0976562 µM): 127 mP and 130 mP and 115 mP and 111 mP
- Fluorescence Polarization (mP) (LC3B [1]; LC3B protein concentration 0.195312 µM): 131 mP and 136 mP and 106 mP and 103 mP
- Fluorescence Polarization (mP) (LC3B [1]; LC3B protein concentration 0.390625 µM): 133 mP and 127 mP and 116 mP and 109 mP
- Fluorescence Polarization (mP) (LC3B [1]; LC3B protein concentration 0.78125 µM): 135 mP and 112 mP and 108 mP
- Fluorescence Polarization (mP) (LC3B [1]; LC3B protein concentration 1.5625 µM): 138 mP and 134 mP and 112 mP and 113 mP
- Fluorescence Polarization (mP) (LC3B [1]; LC3B protein concentration 3.125 µM): 132 mP and 138 mP and 112 mP and 108 mP
- Fluorescence Polarization (mP) (LC3B [1]; LC3B protein concentration 6.25 µM): 132 mP and 131 mP and 113 mP and 111 mP
- Fluorescence Polarization (mP) (LC3B [1]; LC3B protein concentration 12.5 µM): 108 mP and 101 mP and 138 mP and 135 mP
- Fluorescence Polarization (mP) (LC3B [1]; LC3B protein concentration 25 µM): 110 mP and 132 mP and 130 mP
- Fluorescence Polarization (mP) (LC3B [1]; LC3B protein concentration 50 µM): 107 mP and 101 mP and 132 mP and 133 mP
- Fluorescence Polarization (mP) (LC3B [1]; LC3B protein concentration 100 µM): 102 mP and 138 mP and 134 mP
- binding (fluorescence labelling) to purified DCAF11 (DCAF11 [2]): binds to purified DCAF11 in a concentration-dependent manner

Compound: O=C(CCCCC1SC[C@@H]2NC(=O)N[C@H]12)NCCOc1c(Br)cc(/C=C2\C(=O)Nc3ccc(Br)cc32)cc1Br (stereo partly shown) [Compound 14]
- enrichment of DCAF11 by pulldown (DCAF11 [3]): enriched DCAF11 protein

Compound: DC-LC3in-D5 [reference compound]
- change of melting temperature of LC3B (ΔTm) (LC3B [4]): 13 °C

Source: publication PMC10689823, “Discovery of a Drug-like, Natural Product-Inspired DCAF11 Ligand Chemotype” (Nature Communications, 2023)
